In patent US20090143285A1, “TARGET PROTEIN AND TARGET GENE FOR DRUG DISCOVERY AND SCREENING METHOD” (REVERSE PROTEOMICS RESEARCH INSTITUTE CO., LTD., priority 2005, published 2009):
Where a chain is given by its changes, count along the chain named. “Also recorded” adds a separate entry of the source. Where two headings read alike, the source gives them in different places.

How the values were obtained:
[1] = test system: FLJXXXXX-derived proteins; experiment: SEC/MS spin column interaction analysis of FLJXXXXX-derived proteins and various compounds (Tables 30-1 to 30-4); format: binding, human
FLJ25288-derived protein = target: T1, FLJ25288-derived protein (Homo sapiens, UniProt P09525, T85M); experiment: SEC/MS interaction analysis, FLJ25288-derived protein (Annexin A4); format: binding; details: TSKgel super SW2000 micro-LC column (1.0 mm ID×30 mm); presence vs absence of protein; data not shown
T1 construct: His-tag (N); made in house; host or cells: Escherichia coli BL21star(DE3)pLysS
T1 sequence (P09525 1-321 isoform P09525-3 T87M): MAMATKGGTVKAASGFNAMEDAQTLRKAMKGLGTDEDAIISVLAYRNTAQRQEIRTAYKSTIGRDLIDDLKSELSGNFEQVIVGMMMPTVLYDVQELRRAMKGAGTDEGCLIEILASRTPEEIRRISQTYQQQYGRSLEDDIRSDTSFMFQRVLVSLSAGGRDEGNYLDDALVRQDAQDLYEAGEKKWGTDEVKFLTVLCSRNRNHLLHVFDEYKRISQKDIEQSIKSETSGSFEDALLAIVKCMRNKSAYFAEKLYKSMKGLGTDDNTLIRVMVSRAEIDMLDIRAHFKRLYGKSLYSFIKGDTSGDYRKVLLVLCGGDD
Source text: (§1) To analyze the interactions between commonly used drugs and proteins expressed from human full-length cDNA clones while keeping both the proteins and the compounds in non-modified, non-immobilized state, size exclusion chromatography (SEC) and mass analysis were used in combination. The specific procedures are shown below.
(§2) The compound-protein mixture prepared in step 1 was subjected to chromatography using an SEC column, the compound and the protein were separated by SEC, and the compound that interacted with the bound compound or protein contained in the protein fraction was analyzed using a mass analyzer.
(§3) Protein concentrations were measured using BCA Protein Assay (PIERCE), in consideration of the purity calculated by SDS-PAGE.
(§4) Mass analysis was performed using LCQ DECA XP (Thermoelectron) or Q-TOF micro (Micromass), equipped with an ESI probe. […]
(§5) In the 384-well spin column method, Unifilter 100 (Whatman), packed with 10 μL (dry volume) of Bio-Gel P6 (BIO-RAD) and swollen with milliQ water, was used as the SEC column. […] 2-μL of mass analysis samples were injected using an autosampler at 2-minute intervals; the mass spectral intensity of the compound was measured to retrieve the spectral intensity of the pharmaceutical compound contained in the SEC spin column filtrate (protein fraction eluted from SEC).

FLJ36526-derived protein = target: T2, FLJ36526-derived protein (Homo sapiens, UniProt Q9UNZ2, D290N/L361F); experiment: SEC/MS interaction analysis, FLJ36526-derived protein (NSFL1 (p97) cofactor (p47)); format: binding; details: TSKgel super SW2000 micro-LC column (1.0 mm ID×30 mm); presence vs absence of protein; data not shown
T2 construct: His-tag (N); made in house; host or cells: Escherichia coli BL21star(DE3)pLysS
T2 sequence (Q9UNZ2 1-370 D290N/L361F): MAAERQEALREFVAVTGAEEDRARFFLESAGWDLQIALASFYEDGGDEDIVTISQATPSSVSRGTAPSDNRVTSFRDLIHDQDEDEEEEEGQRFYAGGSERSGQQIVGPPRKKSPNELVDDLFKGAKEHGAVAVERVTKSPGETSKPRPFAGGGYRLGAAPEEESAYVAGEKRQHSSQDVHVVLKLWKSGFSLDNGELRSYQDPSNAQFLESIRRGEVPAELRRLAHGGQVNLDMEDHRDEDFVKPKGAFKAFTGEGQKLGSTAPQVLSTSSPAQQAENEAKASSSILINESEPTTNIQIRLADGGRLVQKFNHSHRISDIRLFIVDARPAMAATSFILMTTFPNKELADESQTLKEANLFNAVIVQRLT
Source text: (§6) The specific procedures are shown below.

FLJ35914-derived protein = target: T3, FLJ35914-derived protein (Homo sapiens, UniProt Q9HB65, DEL362-362); experiment: SEC/MS interaction analysis, FLJ35914-derived protein (ELL3); format: binding; details: TSKgel super SW2000 micro-LC column (1.0 mm ID×30 mm); presence vs absence of protein; data not shown
T3 construct: His-tag (N); made in house; host or cells: Escherichia coli BL21star(DE3)pLysS
T3 sequence (Q9HB65 with tags, fused parts or gaps DEL362-362): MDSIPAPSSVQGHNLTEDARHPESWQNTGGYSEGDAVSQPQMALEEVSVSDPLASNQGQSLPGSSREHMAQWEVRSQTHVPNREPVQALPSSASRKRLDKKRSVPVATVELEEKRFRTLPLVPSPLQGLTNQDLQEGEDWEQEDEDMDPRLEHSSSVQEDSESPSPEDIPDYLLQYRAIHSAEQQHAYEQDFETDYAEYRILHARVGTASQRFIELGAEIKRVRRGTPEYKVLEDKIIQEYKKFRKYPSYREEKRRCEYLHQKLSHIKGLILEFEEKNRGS
Source text: as §6

FLJ39553-derived protein = target: T4, FLJ39553-derived protein (Homo sapiens, UniProt Q6P6B1, N326S); experiment: SEC/MS interaction analysis, FLJ39553-derived protein (hypothetical protein FLJ39553); format: binding; details: TSKgel super SW2000 micro-LC column (1.0 mm ID×30 mm); presence vs absence of protein; data not shown
T4 construct: His-tag (N); made in house; host or cells: Escherichia coli BL21star(DE3)pLysS
T4 sequence (Q6P6B1 1-374 N326S): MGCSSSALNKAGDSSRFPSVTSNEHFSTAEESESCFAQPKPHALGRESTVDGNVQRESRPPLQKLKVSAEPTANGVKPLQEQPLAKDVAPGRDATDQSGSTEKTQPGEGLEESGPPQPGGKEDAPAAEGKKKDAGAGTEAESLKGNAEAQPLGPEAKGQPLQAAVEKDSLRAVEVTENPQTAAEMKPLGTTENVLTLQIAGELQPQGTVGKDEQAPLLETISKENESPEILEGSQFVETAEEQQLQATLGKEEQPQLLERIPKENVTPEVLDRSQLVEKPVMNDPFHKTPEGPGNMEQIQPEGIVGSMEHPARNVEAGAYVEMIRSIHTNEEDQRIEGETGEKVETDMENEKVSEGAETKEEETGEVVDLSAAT
Source text: as §1, §2, §3, §4, §5

FLJ41991-derived protein = target: T5, FLJ41991-derived protein (Homo sapiens, UniProt P57764, E293G); experiment: SEC/MS interaction analysis, FLJ41991-derived protein (GSDMDC1); format: binding
T5 construct: His-tag (N); made in house; host or cells: Escherichia coli BL21star(DE3)pLysS (pDEST17)
T5 sequence (P57764 265-484 E293G): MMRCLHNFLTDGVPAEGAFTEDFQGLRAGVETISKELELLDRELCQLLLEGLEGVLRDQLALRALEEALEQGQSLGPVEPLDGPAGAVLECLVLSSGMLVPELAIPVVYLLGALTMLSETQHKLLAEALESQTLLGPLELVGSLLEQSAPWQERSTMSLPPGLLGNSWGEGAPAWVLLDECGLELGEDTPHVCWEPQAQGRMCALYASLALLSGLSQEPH
Method in brief: (§7)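 Compound–protein mixtures separated by SEC (micro-LC column with 10 mM ammonium acetate mobile phase, or Bio-Gel P6 spin column) and analysed by ESI mass spectrometry. Interaction inferred from a protein-dependent shift in the compound's mass chromatogram, or from compound signal intensity in the eluted protein fraction.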

FLJ11211-derived protein = target: T6, FLJ11211-derived protein (Homo sapiens, UniProt Q9Y222, I712M); experiment: SEC/MS interaction analysis, FLJ11211-derived protein (DMTF1; DMP1); format: binding; details: spin column method; mixture with protein vs buffer solution alone; data not shown
T6 construct: corresponds to a partial peptide of human DMP1 on the C-terminal side thereof (303 amino acid residues); His-tag (N); made in house; host or cells: Escherichia coli BL21star(DE3)pLysS
T6 sequence (Q9Y222 458-760 I712M): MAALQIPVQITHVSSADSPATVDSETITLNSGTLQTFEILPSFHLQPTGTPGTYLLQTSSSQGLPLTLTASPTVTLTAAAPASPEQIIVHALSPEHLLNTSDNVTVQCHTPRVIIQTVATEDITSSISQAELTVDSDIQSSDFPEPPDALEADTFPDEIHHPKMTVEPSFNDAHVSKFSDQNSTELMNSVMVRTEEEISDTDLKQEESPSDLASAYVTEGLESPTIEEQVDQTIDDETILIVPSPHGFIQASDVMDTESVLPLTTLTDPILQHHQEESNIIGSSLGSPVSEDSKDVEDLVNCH
Source text: as §1, §2, §3, §4, §5

FLJ38897-derived protein = target: T7, FLJ38897-derived protein (Homo sapiens, UniProt P57764); experiment: SEC/MS interaction analysis, FLJ38897-derived protein (GSDMDC1); format: binding; details: spin column method; mixture with protein vs buffer solution alone; data not shown
T7 construct: His-tag (N); made in house; host or cells: Escherichia coli BL21star(DE3)pLysS
T7 sequence (P57764 265-484): T5 sequence (P57764 265-484 E293G) with G29E
Method in brief: as §7

FLJ22317-derived protein = target: T8, FLJ22317-derived protein (Homo sapiens, UniProt Q9NWV8); experiment: SEC/MS interaction analysis, FLJ22317-derived protein (HSPC142 protein); format: binding; details: TSKgel super SW2000 micro-LC column (1.0 mm ID×30 mm); presence vs absence of protein; data not shown
T8 construct: His-tag (N); made in house; host or cells: Escherichia coli BL21star(DE3)pLysS
T8 sequence (Q9NWV8 whole entry): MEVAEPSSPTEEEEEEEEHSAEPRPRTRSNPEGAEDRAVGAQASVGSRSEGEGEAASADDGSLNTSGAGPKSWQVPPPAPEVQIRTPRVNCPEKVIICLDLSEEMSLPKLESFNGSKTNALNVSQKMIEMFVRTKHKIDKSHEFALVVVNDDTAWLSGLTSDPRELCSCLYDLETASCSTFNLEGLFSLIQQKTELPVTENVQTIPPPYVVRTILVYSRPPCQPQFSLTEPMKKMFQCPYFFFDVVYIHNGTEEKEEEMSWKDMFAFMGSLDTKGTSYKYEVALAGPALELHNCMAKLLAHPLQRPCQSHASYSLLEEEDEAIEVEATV
Source text: as §6

[2] = SEC spin column filtrate, spectral intensity increased with doses of compound and protein

## CN(Cc1cnc2nc(N)nc(N)c2n1)c1ccc(C(=O)N[C@@H](CCC(=O)O)C(=O)O)cc1 (racemic) [amethopterin (R, S), amethopterin]
[1]; [2]
  FLJ No of the derived protein with which the compound was judged to exhibit a concentration-dependent interaction: FLJ25288
FLJ25288-derived protein
  interaction judged from mass chromatogram of the compound (elution from SEC micro-LC column): there was an interaction

## C/C1=C2N=C(/C=C3N=C(/C(C)=C4\[N-][C@@](C)([C@@H]5N=C1[C@](C)(CCC(=O)NC[C@@H](C)OP(=O)([O-])O[C@H]1[C@@H](O)[C@@H](n6cnc7cc(C)c(C)cc76)O[C@@H]1CO)[C@H]5CC(N)=O)[C@@](C)(CC(N)=O)[C@@H]4CCC(N)=O)[C@@](C)(CC(N)=O)[C@@H]\3CCC(N)=O)C(C)(C)[C@@H]/2CCC(N)=O.[Co+3].[OH-] [hydroxocobalamin]
[1]
  FLJ No of the derived protein with which the compound was judged to exhibit a concentration-dependent interaction: FLJ35914; also recorded: FLJ36526; also recorded: FLJ39553
FLJ36526-derived protein
  interaction judged from mass chromatogram of the compound (elution from SEC micro-LC column): there was an interaction
FLJ35914-derived protein
  interaction judged from mass chromatogram of the compound (elution from SEC micro-LC column): there was an interaction
FLJ39553-derived protein
  interaction judged from mass chromatogram of the compound (elution from SEC micro-LC column): there was an interaction

## CC(C)(C)c1ccc(C(O)CCCN2CCC(C(O)(c3ccccc3)c3ccccc3)CC2)cc1 (stereo not drawn) [terfenadine]
[1]; [2]
  FLJ No of the derived protein with which the compound was judged to exhibit a concentration-dependent interaction: FLJ11211; also recorded: FLJ38897; also recorded: FLJ41991
FLJ41991-derived protein; compound 12.5 μM, protein 0 μM
  spectrum intensity of the compound in the SEC spin column filtrate: 26814
FLJ41991-derived protein; compound 12.5 μM, protein 5 μM
  spectrum intensity of the compound in the SEC spin column filtrate: 200843
FLJ41991-derived protein; compound 12.5 μM, protein 10 μM
  spectrum intensity of the compound in the SEC spin column filtrate: 376865
FLJ41991-derived protein; compound 12.5 μM, protein 25 μM
  spectrum intensity of the compound in the SEC spin column filtrate: 1734729
FLJ41991-derived protein; compound 25 μM, protein 0 μM
  spectrum intensity of the compound in the SEC spin column filtrate: 87636
FLJ41991-derived protein; compound 25 μM, protein 5 μM
  spectrum intensity of the compound in the SEC spin column filtrate: 311313
FLJ41991-derived protein; compound 25 μM, protein 10 μM
  spectrum intensity of the compound in the SEC spin column filtrate: 949465
FLJ41991-derived protein; compound 25 μM, protein 25 μM
  spectrum intensity of the compound in the SEC spin column filtrate: 4190413
FLJ41991-derived protein; compound 62.5 μM, protein 0 μM
  spectrum intensity of the compound in the SEC spin column filtrate: 231173
FLJ41991-derived protein; compound 62.5 μM, protein 5 μM
  spectrum intensity of the compound in the SEC spin column filtrate: 1759965
FLJ41991-derived protein; compound 62.5 μM, protein 10 μM
  spectrum intensity of the compound in the SEC spin column filtrate: 5619658
FLJ41991-derived protein; compound 62.5 μM, protein 25 μM
  spectrum intensity of the compound in the SEC spin column filtrate: 9678283
FLJ41991-derived protein; spin column method, doses of both compound and protein varied
  interaction judged from spectrum intensity of the compound in the SEC spin column filtrate (protein fraction eluted from SEC): concentration-dependent interaction
FLJ11211-derived protein
  interaction judged from mass spectrum peak intensity of the compound in the spin column filtrate: there was an interaction
FLJ38897-derived protein
  interaction judged from mass spectrum peak intensity of the compound in the spin column filtrate: an interaction was observed

## solanine α
[1]; [2]
  FLJ No of the derived protein with which the compound was judged to exhibit a concentration-dependent interaction: FLJ22317; also recorded: FLJ39553
FLJ22317-derived protein
  interaction judged from mass chromatogram of the compound (elution from SEC micro-LC column): there was an interaction
